Legend:
[1] = biological target: T1, recombinant human Muscarinic M1 receptor (Homo sapiens, UniProt P11229); assay: Allosteric potency EC50 for Muscarinic M1 receptor, CHO pCRE-Luc reporter cell-based assay with EC20 of acetylcholine; conditions: CHO cells, human M1, luciferase reporter, in presence of EC20 of acetylcholine, 4 h
T1 sequence (P11229 1-460): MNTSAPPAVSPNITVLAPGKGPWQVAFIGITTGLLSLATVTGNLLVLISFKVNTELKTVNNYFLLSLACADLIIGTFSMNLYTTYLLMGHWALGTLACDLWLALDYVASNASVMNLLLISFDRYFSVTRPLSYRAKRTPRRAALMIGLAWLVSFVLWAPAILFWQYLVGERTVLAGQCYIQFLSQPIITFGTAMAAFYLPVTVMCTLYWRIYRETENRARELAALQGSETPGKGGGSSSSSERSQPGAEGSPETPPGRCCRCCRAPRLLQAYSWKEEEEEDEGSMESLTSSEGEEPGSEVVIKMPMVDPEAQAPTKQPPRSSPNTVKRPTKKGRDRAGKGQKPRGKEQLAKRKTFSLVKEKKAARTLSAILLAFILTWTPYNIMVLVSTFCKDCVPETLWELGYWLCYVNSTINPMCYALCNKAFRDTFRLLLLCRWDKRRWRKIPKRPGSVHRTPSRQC
Experimental: Determination of allosteric potency EC50 values for Muscarinic M1 receptor:
A stable CHO cell line expressing recombinant human Muscarinic M1 receptor and pCRE-Luc reporter system was used for cell-based assay. The assay offers a non-radioactive based approach to determine binding of a compound to GPCRs. In this specific assay, the level of intracellular cyclic AMP which is modulated by activation or inhibition of the receptor is measured. The recombinant cells harbor luciferase reporter gene under the control of cAMP response element.
The above cells were grown in 96 well clear bottom white plates in Hams F12 medium containing 10% fetal bovine serum (FBS). Prior to the addition of compounds or standard agonist, cells were serum starved overnight. Increasing concentrations of test compounds were added along with EC20 of acetylcholine in OptiMEM medium to the cells. The incubation was continued at 37° C. in CO2 incubator for 4 h. Medium was removed and cells were washed with phosphate buffered saline. The cells were lysed and luciferase activity was measured in a Luminometer. Luminescence counts in each concentrations of test item were normalized to the acetylcholine induced maximum response and the data was analyzed using Graphpad software. EC50 values of the compounds were defined as the concentration required in stimulating the luciferase activity by 50% in presence of EC20 of acetylcholine.

[2] = Rodent pharmacokinetic study; assay type: in vivo, Male Wistar rats; conditions: male, Wistar, rat, plasma; for bioavailability: oral 3 mg/kg vs i.v. 1 mg/kg, read-out: F (bioavailability)
Experimental: Rodent Pharmacokinetic Study
Male Wistar rats (260±50 grams) were used as experimental animals. Animals were housed individually in polypropylene cage. Two days prior to study, male Wistar rats were anesthetized with isoflurane for surgical placement of jugular vein catheter. Rats were randomly divided for oral (3 mg/kg) and intravenous (i.v) (1 mg/kg) dosing (n=3/group) and fasted overnight before oral dosing (p.o.). However, rats allocated to intravenous (i.v.) dosing food and water was provided ad libitum.
At pre-determined point, blood was collected through jugular vein and replenished with an equivalent volume of normal saline. Collected blood was transferred into a labelled eppendorf tube containing 10 μL of heparin as an anticoagulant. Typically blood samples were collected at following time points: 0.08, 0.25, 0.5, 1, 2, 4, 6, 8, and 24 h post dose. Blood was centrifuged at 4000 rpm for 10 minutes. Plasma was separated and stored frozen at −80° C. until analysis. The concentrations of the test compounds were quantified in plasma by qualified LC-MS/MS method using suitable extraction technique. The test compounds were quantified in the calibration range around 1-1000 ng/mL in plasma. Study samples were analyzed using calibration samples in the batch and quality control samples spread across the batch.
Pharmacokinetic parameters Cmax, Tmax (h), AUCt, T1/2, clearance and bioavailability (F) were calculated by non-compartmental model using standard non-compartmental model by using Phoenix WinNonlin 6.0.2 or 6.0.3 version Software package.

[3] = Rodent brain penetration study; assay type: in vivo, Male Wistar rats; conditions: male, Wistar, brain and plasma, po; rat, 3 mg/kg, p.o. @ 1.0 hr, brain-plasma ratio; read-out: Single dose Rat Brain Penetration (Cb/Cp)
Experimental: Rodent Brain Penetration Study
Male Wistar rats (260±40 grams) were used as experimental animals. Three animals were housed in each cage. Animals were given water and food ad libitum throughout the experiment and maintained on a 12 h light/dark cycle.
Brain penetration was determined in discrete manner in rats. One day prior to dosing day, male Wistar rats were acclimatized and randomly grouped according to their weight. At each time point (0.5, 1 and 2 h) n=3 animals were used.
The test compounds were suitably preformulated and administered orally at (free base equivalent) 3 mg/kg. Blood samples were removed via cardiac puncture by using isoflurane anesthesia. The animals were sacrificed to collect brain tissue. Plasma was separated and brain samples were homogenized and stored frozen at −20° C. until analysis. The concentrations of the test compounds in plasma and brain were determined using LC-MS/MS method.
The test compounds were quantified in plasma and brain homogenate by qualified LC-MS/MS method using suitable extraction technique. The test compounds were quantified in the calibration range of 1-500 ng/mL in plasma and brain homogenate. Study samples were analyzed using calibration samples in the batch and quality control samples spread across the batch.

Row | SMILES | EC50 [1] [nM] | AUC(0-t) ([2]; iv, i.v. 1 mg/kg) [ng·h/mL] | half-life ([2]; iv, i.v. 1 mg/kg) [h] | clearance ([2]; iv, i.v. 1 mg/kg) [mL/min/kg] | bioavailability [2] [%] | AUC(0-t) ([2]; oral 3 mg/kg) [ng·h/mL] | Cmax ([2]; oral 3 mg/kg) [ng/mL] | Tmax ([2]; oral 3 mg/kg) [h] | half-life ([2]; oral 3 mg/kg) [h] | Kp at 1 h [3]
1 | Cc1c(Cc2ccc(-n3cccn3)cc2)cc(C(=O)N[C@H]2CCCC[C@@H]2O)c2c1NCCO2 [Example 17, N-(cis-1S,2S-2-Hydroxycyclohexyl)-6-(4-pyrazol-1-yl-benzyl)-5-methyl-3,4-dihydro-2H-benzo[1,4]oxazine-8-carboxamide] | 1120 | 635 ± 70 | 1.3 ± 0.2 | 26 ± 3 | 37 ± 6 | 705 ± 118 | 288 ± 26.5 | 1 | 1.3 ± 0.1 | 0.32 ± 0.06
2 | Cc1c(Cc2cccnc2Cl)cc(C(=O)N[C@@H]2CCCC[C@H]2O)c2nc[nH]c12 [Example 31, N-(cis-1S,2S-2-Hydroxycyclohexyl)-7-methyl-6-[2-chloropyridin-3-ylmethyl]-1H-benzimidazole-4-carboxamide] | 2820 | – | – | – | – | – | – | – | – | –
3 | Cc1c(Cc2ccc(-n3cccn3)cc2)cc(C(=O)N[C@H]2CCCC[C@@H]2O)c2nccn12 [Example 19, N-(cis-1S,2S-2-Hydroxycyclohexyl)-5-methyl-6-(4-pyrazol-1-yl-benzyl)-imidazo[1,2-a]pyridine-8-carboxamide] | 178 | – | – | – | – | – | – | – | – | –
4 | Cn1cc(-c2ccc(Cc3cc(C(=O)N[C@@H]4CCCC[C@H]4O)c4nc[nH]c4c3)cc2)cn1 [Example 29, N-(cis-1S,2S-2-Hydroxycyclohexyl)-6-[4-(1-methyl-1H-pyrazol-4-yl)-benzyl]-1H-benzimidazole-4-carboxamide] | 449 | – | – | – | – | – | – | – | – | –
5 | Cc1nc2c(C(=O)N[C@H]3CCCC[C@@H]3O)cc(Cc3ccc(-c4cscn4)cc3)c(C)c2[nH]1 [Example 40, N-(cis-1S,2S-2-Hydroxycyclohexyl)-2,7-dimethyl-6-(4-thiazol-4-yl-benzyl)-1H-benzimidazole-4-carboxamide] | 1500 | – | – | – | – | – | – | – | – | –
6 | Cn1cc(-c2ccc(Cc3cc(C(=O)N[C@H]4CCCC[C@@H]4O)c4nccn4c3)c(F)c2F)cn1 [Example 21, N-(cis-1S,2S-2-Hydroxycyclohexyl)-6-[2,3-difluoro-4-(1-methyl-1H-pyrazol-4-yl)-benzyl]-imidazo[1,2-a]pyridine-8-carboxamide] | 1050 | – | – | – | – | – | – | – | – | –
7 | Cc1c(Cc2ccc(-c3cscn3)cc2)cc(C(=O)N[C@@H]2CCCC[C@H]2O)c2c1ncn2C [Example 45, N-(cis-1S,2S-2-Hydroxycyclohexyl)-3,7-dimethyl-6-[4-(thiazol-4-yl)-benzyl]-3H-benzimidazole-4-carboxamide] | 10000 | – | – | – | – | – | – | – | – | –
8 | Cc1c(Cc2ccc(-n3cccn3)cc2)cc(C(=O)N[C@H]2CCCC[C@@H]2O)c2nc[nH]c12 [Example 27, N-(cis-1S,2S-2-Hydroxycyclohexyl)-7-methyl-6-(4-pyrazol-1-yl-benzyl)-1H-benzimidazole-4-carboxamide] | 357 | – | – | – | – | – | – | – | – | –
9 | Cc1cc2c(C)c(Cc3ccc(-c4cnn(C)c4)cc3)cc(C(=O)N[C@H]3CCCC[C@@H]3O)c2o1 [Example 46, N-(cis-1S,2S-2-Hydroxycyclohexyl)-2,4-dimethyl-5-[4-(1-methyl-1H-pyrazol-4-yl)-benzyl]-benzofuran-7-carboxamide] | 299 | – | – | – | – | – | – | – | – | –

Continued, values first:

Row | EC50 [1] [nM] | AUC(0-t) ([2]; iv, i.v. 1 mg/kg) [ng·h/mL] | half-life ([2]; iv, i.v. 1 mg/kg) [h] | clearance ([2]; iv, i.v. 1 mg/kg) [mL/min/kg] | bioavailability [2] [%] | AUC(0-t) ([2]; oral 3 mg/kg) [ng·h/mL] | Cmax ([2]; oral 3 mg/kg) [ng/mL] | Tmax ([2]; oral 3 mg/kg) [h] | half-life ([2]; oral 3 mg/kg) [h] | Kp at 1 h [3] | SMILES
10 | 168 | 6150 ± 485 | 3.3 ± 0.7 | 2.7 ± 0.2 | 100 ± 16 | 18400 | 2330 ± 441 | 2 | 3.6 ± 0.2 | – | Cc1c(Cc2ccc(-c3cnn(C)c3)c(F)c2F)cc(C(=O)N[C@H]2CCCC[C@@H]2O)c2ncccc12 [Example 8, N-(cis-1S,2S-2-Hydroxycyclohexyl)-6-[2,3-difluoro-4-(1-methyl-1H-pyrazol-4-yl)-benzyl]-5-methylquinoline-8-carboxamide]
11 | 1670 | 664 ± 81 | 1.5 ± 0.6 | 25 ± 3.3 | 50 ± 2 | 1000 ± 38 | 582 ± 72 | 0.5 | 1.3 ± 0.2 | 0.26 ± 0.04 | Cc1c(Cc2ccc(Cl)nc2)cc(C(=O)N[C@H]2CCCC[C@@H]2O)c2ncccc12 [Example 6, N-(cis-1S,2S-2-Hydroxycyclohexyl)-6-(2-chloropyridin-5-ylmethyl)-5-methylquinoline-8-carboxamide]
12 | 719 | 492 ± 22 | 1.3 ± 0.5 | 34 ± 1.5 | 24 ± 8 | 360 ± 117 | 150 ± 39 | 0.5 to 1 | 1.1 ± 0.1 | 0.54 ± 0.04 | Cc1c(Cc2ccnc(Cl)c2)cc(C(=O)N[C@H]2CCCC[C@@H]2O)c2ncccc12 [Example 1, N-(cis-1S,2S-2-Hydroxycyclohexyl)-6-(2-chloropyridin-4-ylmethyl)-5-methylquinoline-8-carboxamide]
13 | 1680 | 367 ± 39 | 1.6 ± 0.3 | 45 ± 5 | 14 ± 5 | 158 ± 58 | 48 ± 23 | 0.5 to 2 | 2 ± 0.2 | 1.74 ± 0.03 | Cc1c(Cc2cccc(F)c2F)cc(C(=O)N[C@H]2CCCC[C@@H]2O)c2ncccc12 [Example 2, N-(cis-1S,2S-2-Hydroxycyclohexyl)-6-(2,3-difluorobenzyl)-5-methylquinoline-8-carboxamide]
14 | 258 | – | – | – | – | – | – | – | – | – | Cc1c(Cc2ccc(-c3cscn3)cc2)cc(C(=O)N[C@H]2CCCC[C@@H]2O)c2ncccc12 [Example 12, N-(cis-1S,2S-2-Hydroxycyclohexyl)-6-(4-thiazol-4-yl-benzyl)-5-methylquinoline-8-carboxamide]
15 | 157 | – | – | – | – | – | – | – | – | – | Cc1c(Cc2ccc(-n3cccn3)cc2)cc(C(=O)N[C@H]2CCCC[C@@H]2O)c2ncccc12 [Example 10, N-(cis-1S,2S-2-Hydroxycyclohexyl)-6-(4-pyrazol-1-yl-benzyl)-5-methylquinoline-8-carboxamide]

From patent US11278530B2, “Polycyclic amides as muscarinic M1 receptor positive allosteric modulators” (SUVEN LIFE SCIENCES LIMITED, priority 2017, dated 2022)
